How the values were obtained:
[1] = target: T1, HIV-1 IN (Human immunodeficiency virus type 1 group M subtype B, UniProt P12497); assay: HTRF IN multimerization assay; format: biochemical; details: mean ± SD
T1 construct: made in house
Description: A key property of INLAIs is the ability to promote HIV-1 IN homo-multimerization ([39][–][42]). […] The maximal signal (plateau) in our IN aggregation assay corresponds to the highest HTRF signal increase under saturating INLAI concentration, relative to baseline level. Thus, MUT916, MUT884, MUT871, and MUT872 increased HIV-1 IN aggregation 3.7 to 4.4-fold, while BDM-2, BI-224436, and S-I-82 did so 5 to 6-fold (Table 1).

[2] = test system: HXB2 HIV-1 strain; assay: Multiple-round infection assay in MT4 cells, HXB2; format: cell-based; details: Human immunodeficiency virus 1, HXB2; multiple-round infection, MT4 cells; mean ± SD, n > 5; read-out: EC50 HXB2
Protocol: Antiretroviral activity of BDM-2 and its analogs was first evaluated in lymphoblastoid cell line MT4 and in primary human T lymphocytes using NL4-3 and HXB2 laboratory HIV-1 isolates.
(§1) MT4 cells growing exponentially at the density of 10^6/mL were infected with HIV-1 strain NL4-3 at a multiplicity of infection (MOI) of 0.001 for 2 h in the presence of different concentrations of compounds, and the CellTiter-Glo luminescent reagent (Promega) was used to quantify cell viability as described previously ([12]).

[3] = test system: NL4-3 HIV-1 strain; assay: Multiple-round infection assay in MT4 cells, NL4-3; format: cell-based; details: MT4 cells
[4] = Cytotoxicity assay in MT4 cells; format: cell-based; details: human, MT4 cells (proliferating human T-cell line), CellTiter-Glo
Description: Growth inhibition was monitored in a proliferating human T-cell line (MT4) with different concentrations of compounds, using the CellTiter-Glo luminescent reagent (Promega), as previously described ([12]).

[5] = test system: VSV-G-pseudotyped NL4-3Δenv-luc; assay: microbe, parasite or virus in culture; format: cell-based, HIV-1
[6] = test system: recombinant NL4-3 viruses with polymorphisms at IN positions 124 and 125; assay: Multiple-round infection of MT4 cells with recombinant NL4-3 viruses polymorphic at IN positions 124 and 125; format: cell-based, HIV-1
Description: Located on the HIV-1 IN CCD dimerization interface, the principal INLAI binding pocket overlaps with a hot spot of amino acid sequence polymorphism involving IN residues 124 and 125 ([16]). To test if the new INLAIs maintained antiviral activity against major polymorphisms, we introduced all major combinations of residues found in circulating HIV-1 strains at positions 124 and 125 into NL4-3 HIV-1 molecular clone. In total, we evaluated 15 such combinations that collectively covered 98% of all HIV-1 clade polymorphisms involving these positions ([48]). To gauge effects on the antiviral activity, we calculated the EC50 fold change (FC) relative to wild type NL4-3 HIV-1 strain that features Thr124 and Thr125 (TT; specific polymorphisms are referred to by a single letter amino acid code).
as §1

[7] = test system: primary HIV-1 isolates with polymorphisms at IN positions 124 and 125; assay: Multiple-round infection of MT4 cells with primary HIV-1 isolates polymorphic at IN positions 124 and 125; format: cell-based; details: primary isolate
Protocol: Next, we evaluated the potency of the BDM-2 series of INLAIs against several primary HIV-1 isolates with polymorphisms at IN positions 124 and 125.
as §1

[8] = test system: HIV-1 strains resistant to INSTIs, NRTIs, NNRTIs or PIs; format: cell-based
Protocol: To this end, we used both recombinant viruses constructed by introducing described drug resistance mutations into NL4-3 HIV-1 clone as well as drug-resistant clinical HIV-1 isolates.
as §1

[9] = test system: NL4-3 HIV-1 with INLAI-selected IN single point mutations; format: cell-based
[10] = target: HIV-1 IN-LEDGF/p75 interaction (Human immunodeficiency virus type 1 group M subtype B, UniProt P12497); assay: biochemical
[11] = target: CCD of HIV-1 IN and IBD of LEDGF/p75 (Human immunodeficiency virus type 1 group M subtype B, UniProt P12497); assay: biochemical
Protocol: The INLAIs were tested for the ability to inhibit the HIV-1 IN-LEDGF/p75 interaction in a homogeneous time-resolved fluorescence (HTRF) assay. Our assays used either full-length IN and LEDGF/p75 proteins or their respective minimally sufficient interaction domains: the CCD of HIV-1 IN and the IBD of LEDGF/p75 (Table 1).
HTRF-based CCD-IBD interaction, IN-LEDGF/p75 interaction and IN multimerization assays were performed as described previously ([12]).

[12] = INSTI-resistant, NL4-3 background

Cc1ccc(C2CC2)c(-c2cc(F)c3c(c2C)CCCO3)c1[C@H](OC1CC1)C(=O)O [MUT916]
AC50 ([1]; concentration for 50% maximum activation of multimerization): 0.022 ± 0.002 µM | IN multimerization Plateau ([1]; maximum multimerization reached versus baseline): 370 ± 60% | EC50 [2]: 0.0088 ± 0.0008 µM | EC90 ([3]; Human immunodeficiency virus 1, NL43, multiple-round infection, from dose response curves, read-out: EC90 NL4-3): 0.03 ± 0.015 µM | EC50 ([3]; Human immunodeficiency virus 1, NL43, multiple-round infection, mean ± SD, n > 5, read-out: EC50 NL4-3): 0.02 ± 0.009 µM | Selectivity index CC50/EC50 NL4-3 [3]: 3,900 | CC50 [4]: 78 ± 6 µM | EC50 ratio (single/multiple-round infection) [5]: 105 | EC50 ([5]; Human immunodeficiency virus 1, NL43, MT4, read-out: EC50 in single-round infection): 2.1 ± 0.2 µM | Fold change in EC50 relative to parental NL4-3, AA ([6]; recombinant NL4-3, IN 124/125 AA): 1 | Fold change in EC50 relative to parental NL4-3, AM ([6]; recombinant NL4-3, IN 124/125 AM): 0.2 | Fold change in EC50 relative to parental NL4-3, AT ([6]; recombinant NL4-3, IN 124/125 AT): 0.5 | Fold change in EC50 relative to parental NL4-3, AV ([6]; recombinant NL4-3, IN 124/125 AV): 0.4 | Fold change in EC50 relative to parental NL4-3, GA ([6]; recombinant NL4-3, IN 124/125 GA): 1 | Fold change in EC50 relative to parental NL4-3, GT ([6]; recombinant NL4-3, IN 124/125 GT): 1 | Fold change in EC50 relative to parental NL4-3, NA ([6]; recombinant NL4-3, IN 124/125 NA): 4 | Fold change in EC50 relative to parental NL4-3, NT ([6]; recombinant NL4-3, IN 124/125 NT): 1 | Fold change in EC50 relative to parental NL4-3, NV ([6]; recombinant NL4-3, IN 124/125 NV): 0.4 | Fold change in EC50 relative to parental NL4-3, SA ([6]; recombinant NL4-3, IN 124/125 SA): 1 | Fold change in EC50 relative to parental NL4-3, ST ([6]; recombinant NL4-3, IN 124/125 ST): 1 | Fold change in EC50 relative to parental NL4-3, TA ([6]; recombinant NL4-3, IN 124/125 TA): 1 | Fold change in EC50 relative to parental NL4-3, TM ([6]; recombinant NL4-3, IN 124/125 TM): 0.2 | Fold change in EC50 relative to parental NL4-3, TV ([6]; recombinant NL4-3, IN 124/125 TV): 0.4 | Fold change in EC50 relative to parental NL4-3, CAM2BBY (CRF02) ([7]; IN 124/125 AA): 1 | Fold change in EC50 relative to parental NL4-3, E0836M4 (D) ([7]; IN 124/125 AA): 1 | Fold change in EC50 relative to parental NL4-3, KER2008 (A) ([7]; IN 124/125 AA): 1 | Fold change in EC50 relative to parental NL4-3, NP1525 (CRF01) ([7]; IN 124/125 AA): 1 | Fold change in EC50 relative to parental NL4-3, NP1695 (CRF02) ([7]; IN 124/125 AA): 2 | Fold change in EC50 relative to parental NL4-3, TZA125 (C) ([7]; IN 124/125 AA): 0.4 | Fold change in EC50 relative to parental NL4-3, KSM4030 (A) ([7]; IN 124/125 GA): 1 | Fold change in EC50 relative to parental NL4-3, vGA (C) ([7]; IN 124/125 GA): 5 | Fold change in EC50 relative to parental NL4-3, 99ET14 (C) ([7]; IN 124/125 NA): 2 | Fold change in EC50 relative to parental NL4-3, NP1538 (B) ([7]; IN 124/125 NA): 2 | Fold change in EC50 relative to parental NL4-3, vNA_1 (B) ([7]; IN 124/125 NA): 4 | Fold change in EC50 relative to parental NL4-3, vNA_2 (CRF02) ([7]; IN 124/125 NA): 10 | Fold change in EC50 relative to parental NL4-3, vNV (B) ([7]; IN 124/125 NV): 1 | Fold change in EC50 relative to parental NL4-3, vSA_1 (B) ([7]; IN 124/125 SA): 3 | Fold change in EC50 relative to parental NL4-3, vSA_2 (CRF02) ([7]; IN 124/125 SA): 4 | Fold change in EC50 relative to parental NL4-3, vTA_1 (B) ([7]; IN 124/125 TA): 2 | Fold change in EC50 relative to parental NL4-3, vTA_2 (CRF02) ([7]; IN 124/125 TA): 2 | Fold change in EC50 relative to NL4-3, E92Q [8, 12]: 1 | Fold change in EC50 relative to NL4-3, G140S [8, 12]: 1 | Fold change in EC50 relative to NL4-3, G140S/Q148H [8, 12]: 1 | Fold change in EC50 relative to NL4-3, N155H [8, 12]: 1 | Fold change in EC50 relative to NL4-3, Q148H [8, 12]: 1 | Fold change in EC50 relative to NL4-3, Y143R [8, 12]: 0.4 | Fold change in EC50 relative to NL4-3, NLAY351717 ([8]; NRTI-resistant clone): 1 | Fold change in EC50 relative to NL4-3, NLAY351753 ([8]; NRTI/NNRTI-resistant clone): 2 | Fold change in EC50 relative to NL4-3, K103N/Y181C ([8]; NRTI/NNRTIs group, NL4-3 background): 1 | Fold change in EC50 relative to NL4-3, ARP-4595 ([8]; PI-resistant virus): 2 | Fold change in EC50 relative to NL4-3, ARP-4596 ([8]; PI-resistant virus): 1 | Fold change in EC50 relative to NL4-3, ARP-11801 ([8]; PI-resistant virus): 2 | Fold change in EC50 relative to NL4-3, ARP-11803 ([8]; PI-resistant virus): 2 | Fold change in EC50 relative to NL4-3, ARP-11807 ([8]; PI-resistant virus): 2 | Fold change in EC50 relative to NL4-3, ARP-11808 ([8]; PI-resistant virus): 2 | EC50 fold change compared to wild type NL4-3, A128T [9]: 4 | EC50 fold change compared to wild type NL4-3, H171Q [9]: 1 | EC50 fold change compared to wild type NL4-3, N222K [9]: 3 | EC50 fold change compared to wild type NL4-3, T174I [9]: 14 | EC50 fold change compared to wild type NL4-3, Y99H [9]: 3 | IC50 [10]: 0.046 ± 0.016 µM | IC50 [11]: 0.019 ± 0.008 µM
